Assay results published in patent US20250115654A1, “PHARMACEUTICAL COMPOSITION OF GLP-1 RECEPTOR AND GIP RECEPTOR DUAL AGONIST, AND USE THEREOF” (FUJIAN SHENGDI PHARMACEUTICAL CO., LTD., priority 2021, published 2025).
Marks after values point to notes of the source that are not given here. Numbered stars: 1 amine (or outer) side, 2 acyl side, 3 side chain; on linkers, the order of the positions; unused ones are H or OH. Square brackets hold non-standard residues; d marks the D form. Side chains are listed from the residue outwards. Peptide text beside a SMILES is read from it. * marks the point of attachment. C20 diacid = O=C(O)CCCCCCCCCCCCCCCCCCC(=O)*; γGlu = O=C(O)[C@H](CCC(=O)[*:2])N[*:1]; AEEA = NCCOCCOCC(=O)O; Aib = CC(C)(N)C(=O)O

Assays:
[1] = tested on: diet-induced-obesity mice; assay: Body weight of diet-induced-obesity mice, subcutaneous administration once every 3 days; format: in vivo, C57BL/6 mice
human GLP-1R = human GLP-1R (Homo sapiens, UniProt P43220); assay: Agonist activity against GLP-1R, cAMP HTRF in CHO-K1/GLP-1R/CRE-luc stable cells; conditions: Activity against human GLP-1R (EC50 nM), Table 6 run
Sequence of human GLP-1R (P43220 24-463): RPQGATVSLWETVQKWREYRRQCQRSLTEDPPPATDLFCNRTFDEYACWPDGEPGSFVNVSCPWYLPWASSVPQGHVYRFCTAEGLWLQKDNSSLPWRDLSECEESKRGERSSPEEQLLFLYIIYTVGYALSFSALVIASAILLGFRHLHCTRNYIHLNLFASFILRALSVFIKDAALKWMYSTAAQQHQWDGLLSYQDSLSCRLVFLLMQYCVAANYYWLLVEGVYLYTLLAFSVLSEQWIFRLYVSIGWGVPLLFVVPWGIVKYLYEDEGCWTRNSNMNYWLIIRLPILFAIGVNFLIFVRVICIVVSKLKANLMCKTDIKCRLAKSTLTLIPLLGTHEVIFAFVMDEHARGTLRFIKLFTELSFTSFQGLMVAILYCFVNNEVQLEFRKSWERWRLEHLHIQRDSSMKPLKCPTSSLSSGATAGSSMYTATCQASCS

## CC[C@H](C)[C@H](NC(=O)[C@H](CCCCN)NC(=O)[C@H](CCC(=O)O)NC(=O)[C@H](CCCCNC(=O)COCCOCCNC(=O)COCCOCCNC(=O)CC[C@H](NC(=O)CCCCCCCCCCCCCCCCCCC(=O)O)C(=O)O)NC(=O)[C@H](Cc1ccc(O)cc1)NC(=O)[C@@H](NC(=O)[C@H](CO)NC(=O)[C@H](Cc1ccc(O)cc1)NC(=O)[C@H](CC(=O)O)NC(=O)[C@H](CO)NC(=O)[C@@H](NC(=O)[C@H](Cc1ccccc1)NC(=O)[C@@H](NC(=O)CNC(=O)[C@H](CCC(=O)O)NC(=O)C(C)(C)NC(=O)[C@@H](N)Cc1ccc(O)cc1)[C@@H](C)O)[C@@H](C)O)[C@@H](C)CC)C(=O)N[C@@H](C)C(=O)N[C@@H](C)C(=O)N[C@@H](CCC(N)=O)C(=O)N[C@@H](CCC(=O)O)C(=O)N[C@@H](Cc1ccccc1)C(=O)N[C@H](C(=O)N[C@@H](CC(N)=O)C(=O)N[C@@H](Cc1c[nH]c2ccccc12)C(=O)N[C@@H](CC(C)C)C(=O)N[C@@H](CC(C)C)C(=O)N[C@@H](C)C(=O)NCC(=O)NCC(=O)N1CCC[C@H]1C(=O)N[C@@H](CO)C(=O)N[C@@H](CO)C(=O)NCC(=O)N[C@@H](C)C(=O)N1CCC[C@H]1C(=O)N1CCC[C@H]1C(=O)N1CCC[C@H]1C(=O)N[C@@H](CO)C(N)=O)C(C)C [Compound 18#] (H-Y[Aib]EGTFTSDYSIYK([AEEA-AEEA-γGlu-C20 diacid])EKIAAQEFVNWLLAGGPSSGAPPPS-NH2)
[1]; 10 nmol/kg, day 5 after administration
  rate of change in body weight: −14.5 ± 3.3 %
[1]; 10 nmol/kg, day 6 after administration
  rate of change in body weight: −15 ± 5.3 %
[1]; 10 nmol/kg, day 7 after administration
  rate of change in body weight: −18.3 ± 6.3 %
[1]; 10 nmol/kg, day 8 after administration
  rate of change in body weight: −20.1 ± 8***^ %
[1]; 10 nmol/kg, day 9 after administration
  rate of change in body weight: −20.3 ± 9.3 %
[1]; 10 nmol/kg, day 10 after administration
  rate of change in body weight: −23.4 ± 9.8 %
[1]; 10 nmol/kg, day 11 after administration
  rate of change in body weight: −23.9 ± 10.7 %
[1]; 10 nmol/kg, day 12 after administration
  rate of change in body weight: −23.5 ± 11.4 %
[1]; 10 nmol/kg, day 13 after administration
  rate of change in body weight: −26.4 ± 11.8 %
[1]; 10 nmol/kg, day 14 after administration
  rate of change in body weight: −25.1 ± 12.1 %
[1]; 10 nmol/kg, day 15 after administration
  rate of change in body weight: −23.4 ± 9***^ %
[1]; 10 nmol/kg, day 16 after administration
  rate of change in body weight: −26.6 ± 9.7 %
[1]; 10 nmol/kg, day 17 after administration
  rate of change in body weight: −25.7 ± 8.7 %
[1]; 10 nmol/kg, day 18 after administration
  rate of change in body weight: −24.6 ± 8.2 %
[1]; 10 nmol/kg, day 19 after administration
  rate of change in body weight: −27.5 ± 7.6 %
[1]; 10 nmol/kg, day 20 after administration
  rate of change in body weight: −27.3 ± 7.2 %
[1]; 10 nmol/kg, day 21 after administration
  rate of change in body weight: −24.8 ± 6.7 %
[1]; 10 nmol/kg, day 22 after administration
  rate of change in body weight: −28.1 ± 7.4 %
[1]; 10 nmol/kg, day 23 after administration
  rate of change in body weight: −27.1 ± 7***^ %
[1]; 10 nmol/kg, day 24 after administration
  rate of change in body weight: −26 ± 7.1 %
[1]; 10 nmol/kg, day 25 after administration
  rate of change in body weight: −28.5 ± 8.8 %
[1]; 10 nmol/kg, day 26 after administration
  rate of change in body weight: −27.8 ± 8.3 %
[1]; 10 nmol/kg, day 27 after administration
  rate of change in body weight: −24.8 ± 8.4 %
[1]; 10 nmol/kg, day 28 after administration
  rate of change in body weight: −28.2 ± 8.3 %
[1]; 100 nmol/kg, day 0 (before administration)
  rate of change in body weight: 0%
[1]; 100 nmol/kg, day 1 after administration
  rate of change in body weight: −6.3 ± 0.5%
[1]; 100 nmol/kg, day 2 after administration
  rate of change in body weight: −10.9 ± 0.8 %
[1]; 100 nmol/kg, day 3 after administration
  rate of change in body weight: −13.2 ± 1 %
[1]; 100 nmol/kg, day 4 after administration
  rate of change in body weight: −15.7 ± 0.9 %
[1]; 100 nmol/kg, day 5 after administration
  rate of change in body weight: −19.2 ± 1.3 %
[1]; 100 nmol/kg, day 6 after administration
  rate of change in body weight: −21.8 ± 2.3 %
[1]; 100 nmol/kg, day 7 after administration
  rate of change in body weight: −24.7 ± 3.3 %
[1]; 100 nmol/kg, day 8 after administration
  rate of change in body weight: −27.6 ± 3.7 %
[1]; 100 nmol/kg, day 9 after administration
  rate of change in body weight: −29.6 ± 4.7 %
[1]; 100 nmol/kg, day 10 after administration
  rate of change in body weight: −31.6 ± 5.3 %
[1]; 100 nmol/kg, day 11 after administration
  rate of change in body weight: −33.7 ± 6.3 %
[1]; 100 nmol/kg, day 12 after administration
  rate of change in body weight: −34.4 ± 7.1 %
[1]; 100 nmol/kg, day 13 after administration
  rate of change in body weight: −35.6 ± 6.2 %
[1]; 100 nmol/kg, day 14 after administration
  rate of change in body weight: −36.7 ± 5.7 %
[1]; 100 nmol/kg, day 15 after administration
  rate of change in body weight: −35.7 ± 5.6 %
[1]; 100 nmol/kg, day 17 after administration
  rate of change in body weight: −38.2 ± 6.2 %
[1]; 100 nmol/kg, day 18 after administration
  rate of change in body weight: −37.8 ± 6.5 %
[1]; 100 nmol/kg, day 19 after administration
  rate of change in body weight: −38.5 ± 6.5 %
[1]; 100 nmol/kg, day 20 after administration
  rate of change in body weight: −39 ± 6.5 %
[1]; 100 nmol/kg, day 21 after administration
  rate of change in body weight: −37.4 ± 6.6 %
[1]; 100 nmol/kg, day 22 after administration
  rate of change in body weight: −38.3 ± 6.2 %
[1]; 100 nmol/kg, day 23 after administration
  rate of change in body weight: −38 ± 5.9 %
[1]; 100 nmol/kg, day 24 after administration
  rate of change in body weight: −36.8 ± 5.8 %
[1]; 100 nmol/kg, day 25 after administration
  rate of change in body weight: −38.6 ± 5.7 %
[1]; 100 nmol/kg, day 26 after administration
  rate of change in body weight: −38.9 ± 6 %
[1]; 100 nmol/kg, day 27 after administration
  rate of change in body weight: −36.8 ± 5.3 %
[1]; 100 nmol/kg, day 28 after administration
  rate of change in body weight: −37.9 ± 5.7 %
[1]; doses of 3, 10 and 100 nmol/kg
  body weight-reducing effect on high-fat food-induced-obesity mice: significant body weight-reducing effect
Human GLP-1R
  EC50: 0.013 nM
